The source of these data is patent US20100119502A1, “THERAPY REGIMENS, DOSING REGIMENS AND STABLE MEDICAMENTS FOR THE TREATMENT OF POMPE DISEASE” (AMICUS THERAPEUTICS, INC., priority 2008, published 2010).

For series [1], the system named is GAA KO mice. The series can be described thus: In vivo uptake of Myozyme in GAA KO mice with and without oral 1-DNJ-HCl (4-MUG tissue GAA activity). From the text: Enzymatic activity as determined using a 4-MUG fluorogenic substrate assay.
The conditions of series [2]: stored at 2 to 8° C.; cited from earlier work.
The target of the next series is T1, rhGAA (Myozyme™) (Homo sapiens, UniProt P10253).
T1 construct: purchased Genzyme Corp; host or cells: Chinese hamster ovary cell line
The series can be described thus: rhGAA enzyme inactivation in citrate anti-coagulated whole blood at 37° C. The format is in vitro ADME. The settings on record: for rhGAA enzyme inactivated: whole blood 37° C., no 1-DNJ-HCl. How it is done:
Aliquots were collected at 0, 2, 4, 8 and 24 hrs and centrifuged to obtain plasma. These plasma samples were then diluted in potassium acetate buffer (pH 4.0) and assayed for GAA activity using the 4-methylumbeliferyl-α-glucose (4-MUG) fluorogenic substrate. The measured GAA activity for individual samples at each time point was normalized to the 0 hr and expressed as % of initial activity. Data from 4 independent experiments were analyzed to obtain the mean (and standard deviation) and plotted versus time to assess the loss of enzyme activity over this time course.
Aliquots were collected at 0, 3 and 6 hrs and centrifuged to obtain plasma. These plasma samples were then diluted in potassium acetate buffer (pH 4.0) and assayed for GAA activity using the 4-methylumbeliferyl-a-glucose (4-MUG) fluorogenic substrate. The measured GAA activity for individual samples at each time point was normalized to the 0 hr and expressed as % of initial activity.
Based on human plasma PK data, these concentrations are readily obtainable in the clinic.

Series [3] addresses T2, recombinant human GAA (Myozyme®, Genzyme Corp.) (Homo sapiens, UniProt P10253).
T2 construct: purchased Genzyme Corp; host or cells: Chinese hamster ovary cell line
Kind of series: SYPRO Orange thermal stability assay of rhGAA. The format is binding. From the text:
The thermal stability assay utilizes heat to induce protein denaturation, which is monitored using a SYPRO Orange dye that fluoresces upon binding to hydrophobic amino acids (which are not exposed in a folded protein).
FIG. 2B depicts a parallel SYPRO Orange thermal stability experiment to determine if the loss of enzyme activity shown in FIG. 2A, particularly the loss of Myozyme activity at ER pH (7.4), correlates with protein unfolding and denaturation. […]
Denaturation is monitored using a SYPRO Orange dye that fluoresces upon binding to hydrophobic amino acids (which are not exposed in a folded protein).
The thermal stability was performed at pH 7.4 for two formulations, which corresponds to the pH of the ER.
In order to determine if loss of initial enzyme activity is correlated to failure to maintain a proper conformation, a SYPRO Orange thermal stability experiment was performed on the samples above as generally described in Example 1. […] Based on this experiment, the % of GAA folded was estimated and plotted in FIG. 2B. […]

The subject of series [4] is GAA KO mice. Kind of series: Tissue glycogen reduction in GAA KO mice. The format is in vivo. The settings on record: Myozyme co-administered with 30 mg/kg 1-DNJ-HCl. The protocol: To prevent anaphylaxis, before the third and fourth Myozyme™ injection, diphenhydramine (10 mg/kg intraperitoneally) was administered 10 min before Myozyme™ injection. […] Mice were euthanized 14 days after the last Myozyme™ administration. Glycogen levels in heart, diaphragm, soleus, and quadriceps were then measured. […] Supernatants were heat denatured (99° C. for 10 min) to remove endogenous amyloglucosidase activity. […] The reaction was stopped by inactivation at 100° C. for 10 min. […] Simultaneously, the amount of protein was determined in tissue homogenates using the Micro BCA Protein Assay (Pierce, Rockford, Ill.) following the manufacturer's instructions. The glycogen content of each sample was normalized to protein, and data were finally expressed as micrograms of glycogen per milligram of protein (μg/mg protein).

The subject of another series is GAA KO mouse. The series can be described thus: GAA enzyme activity in heart and diaphragm of GAA KO mouse (rhGAA uptake). The format is in vivo. The settings on record: rhGAA co-administered with 1-DNJ-HCl vs ERT monotherapy. The protocol:
Heart and Diaphragm tissue homogenates were harvested and rhGAA activity was measured using the fluorogenic substrate (4-MUG).

“Also recorded” adds a separate entry of the source. Where a name gives a salt, the structure may show the parent alone.

Take “Myozyme: alglucosidase alfa, human acid α-glucosidase produced by recombinant DNA technology in a Chinese hamster ovary cell line (Genzyme)”: the “Myozyme tissue uptake (as a measure of GAA activity)” value in the series on GAA KO mice [1] (Myozyme 10 mg/kg IV weekly, 7 days post injection) is “declined at 7 days post injection”. In series [2], the “time the product is stable on storage” value was “up to 24 hours”. Besides, the rhGAA enzyme inactivated result with rhGAA (Myozyme™) (by 4 hrs) is on record as “approximately 40%”; in the series with rhGAA (Myozyme™) (by 8 hrs), ~70%; in the series with rhGAA (Myozyme™) (by 24 hrs), ~100%. In addition, the “stability of rhGAA by pH” value in series [3] (Myozyme alone, pH 5.2 vs pH 7.4) was “much more stable at lysosomal pH (5.2) than at ER pH (7.4)”.

In the case of `OC[C@H]1NC[C@H](O)[C@@H](O)[C@@H]1O` [1-DNJ-HCl, 1-deoxynorjirimycin hydrochloride], the “Myozyme tissue uptake (as a measure of GAA activity) with coadministered 1-DNJ-HCl” value in the series with GAA KO mice [1] (Myozyme 10 mg/kg IV weekly up to 3 weeks plus 10, 100, 1000 mg/kg oral 1-DNJ-HCl) is given as “dose-dependent increase in Myozyme uptake”. The “tissue glycogen reduction compared to Myozyme alone” value in the series with GAA KO mice [4] is “significantly greater tissue glycogen reduction”. For the same compound, in the series on GAA KO mouse, the “rhGAA uptake in the heart and diaphragm (GAA activity)” value was “increased”. Also, the “stabilizing rhGAA and preventing enzyme inactivation in whole blood” value on rhGAA (Myozyme™) (high 1-DNJ-HCl concentrations (50 and 100 μM)) was “best for stabilizing rhGAA and preventing enzyme inactivation”. For the same compound, at rhGAA (Myozyme™) (rhGAA with 50 μM 1-DNJ-HCl, 37° C., up to 24 hrs), the “rhGAA activity in whole blood” value was “remained completely active”. The “GAA folding / denaturation (% of GAA folded)” value in series [3] (37° C. over 24 hours, Myozyme 0.9 μM, pH 7.4, with or without 100 μM 1-DNJ-HCl) was “can prevent GAA denaturation and loss of enzyme activity”. Moreover, the “stability of rhGAA (heat required to denature)” value in series [3] (pH 7.4, Myozyme plus 100 μM 1-DNJ-HCl vs Myozyme alone, hydrochloride) is listed as “required significantly more heat to denature; also recorded: significantly increased”.
